In the NIST ThermoML archive (doi:10.1021/je400733m):

Settings: for vapor or sublimation pressure: Liquid; for mass density: Gas, isochoric method

F [hydrogen fluoride]
Settings | vapor or sublimation pressure [kPa]
293.12 K | 102.1
303.13 K | 145.3
313.16 K | 202.1
323.08 K | 274.7
333.13 K | 368.7
343.1 K | 487.1
353.14 K | 636.4

Settings | mass density [kg/m3]
293.15 K, 27.7 kPa | 0.232
293.15 K, 29 kPa | 0.245
293.15 K, 31.8 kPa | 0.282
293.15 K, 34.5 kPa | 0.32
293.15 K, 37.2 kPa | 0.36
293.15 K, 41.5 kPa | 0.438
293.15 K, 55.5 kPa | 0.802
293.15 K, 69.3 kPa | 1.311
293.15 K, 83.3 kPa | 1.954
293.15 K, 98.6 kPa | 2.86
303.15 K, 26.4 kPa | 0.212
303.15 K, 29.4 kPa | 0.239
303.15 K, 34.2 kPa | 0.283
303.15 K, 38 kPa | 0.32
303.15 K, 41.5 kPa | 0.356
303.15 K, 45.1 kPa | 0.395
303.15 K, 52.7 kPa | 0.491
303.15 K, 64.8 kPa | 0.694
303.15 K, 78 kPa | 0.999
303.15 K, 90 kPa | 1.359
303.15 K, 102.6 kPa | 1.818
303.15 K, 114.8 kPa | 2.327
303.15 K, 126.7 kPa | 2.883
303.15 K, 141.6 kPa | 3.802
313.15 K, 29.3 kPa | 0.227
313.15 K, 35.9 kPa | 0.28
313.15 K, 36.4 kPa | 0.28
313.15 K, 39.6 kPa | 0.307
313.15 K, 41.4 kPa | 0.326
313.15 K, 42.5 kPa | 0.331
313.15 K, 48.3 kPa | 0.385
313.15 K, 53.3 kPa | 0.426
313.15 K, 55.1 kPa | 0.447
313.15 K, 57 kPa | 0.461
313.15 K, 62.1 kPa | 0.51
313.15 K, 68.9 kPa | 0.59
313.15 K, 74 kPa | 0.644
313.15 K, 82.8 kPa | 0.767
313.15 K, 90.7 kPa | 0.883
313.15 K, 96.6 kPa | 0.992
313.15 K, 109.1 kPa | 1.246
313.15 K, 110.3 kPa | 1.285
313.15 K, 124.3 kPa | 1.653
313.15 K, 129.3 kPa | 1.787
313.15 K, 138 kPa | 2.078
313.15 K, 148 kPa | 2.417
313.15 K, 152 kPa | 2.579
313.15 K, 165.7 kPa | 3.118
313.15 K, 165.8 kPa | 3.133
313.15 K, 180.3 kPa | 3.777
313.15 K, 180.5 kPa | 3.797
323.15 K, 55 kPa | 0.422
323.15 K, 100.9 kPa | 0.842
323.15 K, 117.9 kPa | 1.05
323.15 K, 156.9 kPa | 1.731
323.15 K, 181.4 kPa | 2.343
323.15 K, 204.5 kPa | 3.061
323.15 K, 228.7 kPa | 3.949
333.15 K, 29.2 kPa | 0.218
333.15 K, 99.9 kPa | 0.759
333.15 K, 112.6 kPa | 0.863
333.15 K, 142.2 kPa | 1.147
333.15 K, 163.7 kPa | 1.386
333.15 K, 180 kPa | 1.61
333.15 K, 199.2 kPa | 1.904
333.15 K, 222.8 kPa | 2.36
333.15 K, 234.8 kPa | 2.612
333.15 K, 246.2 kPa | 2.902
333.15 K, 270.8 kPa | 3.552
333.15 K, 276.4 kPa | 3.753
333.15 K, 305.8 kPa | 4.693
333.15 K, 317.3 kPa | 5.162
333.15 K, 341.5 kPa | 6.088
333.15 K, 343.5 kPa | 6.229
343.15 K, 24.6 kPa | 0.179
343.15 K, 67.3 kPa | 0.488
343.15 K, 141.7 kPa | 1.05
343.15 K, 244.7 kPa | 2.094
343.15 K, 289.6 kPa | 2.791
343.15 K, 340.6 kPa | 3.856
343.15 K, 375.4 kPa | 4.777
343.15 K, 414.8 kPa | 6.034
343.15 K, 455.3 kPa | 7.553
353.15 K, 50.5 kPa | 0.352
353.15 K, 118.5 kPa | 0.833
353.15 K, 189 kPa | 1.359
353.15 K, 279.3 kPa | 2.154
353.15 K, 334.2 kPa | 2.782
353.15 K, 391.1 kPa | 3.617
353.15 K, 450.1 kPa | 4.75
353.15 K, 509 kPa | 6.216
353.15 K, 583.5 kPa | 8.604
363.15 K, 78.7 kPa | 0.523
